Experiment [1] concerns the target T1, Human MGAT-2 (Homo sapiens (Human), UniProt Q3SYC2). Description: MGAT LCMS Assay (human MGAT-2).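 Note: diolein product quantified by LC/MS with positive APCI, expressed as peak area ratio versus an internal standard, and this ratio used to derive IC50.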 It counts as biochemical. To be noted: human MGAT-2 membranes expressed in Sf9 cells; 2-oleoylglycerol and oleoyl-Coenzyme A; read-out: h-MGAT2 IC50 (nM) LCMS Assay.
Experiment [2] concerns the target T1, Human MGAT-2. The experiment can be described thus: MGAT SPA Assay.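 Note: inhibition scaled between DMSO vehicle as full MGAT2 activity and membranes of uninfected Sf9 cells as blank, IC50 fitted by logistic curve.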 It counts as biochemical. The following applies: membranes from Sf9 cells expressing recombinant human MGAT2; 2-monooleoylglycerol and [3H]-oleoyl-CoA.

Each structure is given as a SMILES string.

T1 sequence (Q3SYC2 whole entry): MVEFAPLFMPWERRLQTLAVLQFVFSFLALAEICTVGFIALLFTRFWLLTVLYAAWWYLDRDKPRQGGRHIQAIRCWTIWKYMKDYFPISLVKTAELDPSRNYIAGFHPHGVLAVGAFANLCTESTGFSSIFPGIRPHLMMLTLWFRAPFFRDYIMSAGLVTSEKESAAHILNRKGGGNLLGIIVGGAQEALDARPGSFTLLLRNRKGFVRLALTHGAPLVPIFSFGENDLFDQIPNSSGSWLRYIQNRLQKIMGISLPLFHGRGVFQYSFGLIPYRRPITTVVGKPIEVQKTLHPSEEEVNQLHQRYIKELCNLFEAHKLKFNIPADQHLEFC

For `Cc1ccc(NC(=O)C2=C(c3ccc(C)cc3)CC(c3ccc(OCCCC(F)(F)F)cc3)(C(F)(F)F)NC2=O)cc1` (centres unmarked) [Example 82], the half-maximal inhibitory concentration (IC50) (as a rule, the concentration at which inhibition is half-maximal) at Human MGAT-2 [1] was 2 nM; on Human MGAT-2 [2], 133 nM.
Taken in the same sequence, the figures for `COc1ccc(NC(=O)C2=C(c3ccc(C)cc3)CC(c3ccc(OCCCC(F)(F)F)cc3)(C(F)(F)F)NC2=O)cc1F` (centres unmarked) [Example 84] were 2 nM and 115 nM.
Take `Cc1ccc(C2=C(C(=O)Nc3ccc(C)c(F)c3)C(=O)NC(c3ccc(OCCCC(F)(F)F)cc3)(C(F)(F)F)C2)cc1` (centres unmarked) [Example 85]: the values for the concentration for half-maximal inhibition (IC50) on Human MGAT-2 [1] and at Human MGAT-2 [2] were 7 nM and 1460 nM, respectively.
Taken in the same sequence, the figures for `Cc1ccc(C2=C(C(=O)Nc3ccc(C(F)(F)F)cc3)C(=O)NC(c3ccc(OCCCC(F)(F)F)cc3)(C(F)(F)F)C2)cc1` (centres unmarked) [Example 86] were 1 nM and 201 nM.
Taken in the same sequence, the figures for `COc1ccc(NC(=O)C2=C(c3ccc(C)cc3)CC(c3ccc(OCC(F)(F)F)cc3)(C(F)(F)F)NC2=O)cc1` (centres unmarked) [Example 88] were 5 nM and 28 nM.
The corresponding values for `Cc1ccc(C2=C(C#N)C(=O)NC(c3ccc(OCC(F)(F)F)cc3)(C(F)(F)F)C2)cc1` (centres unmarked) [Example 89] are 20 nM and 731 nM.
Take `COc1ccc(C2=C(C#N)C(=O)NC(c3ccc(OCCCC(F)(F)F)cc3)(C(F)(F)F)C2)c(F)c1` (centres unmarked) [Example 91]: the results for the IC50 at Human MGAT-2 [1] and on Human MGAT-2 [2] were 2 nM and 916 nM, respectively.
Taken in the same sequence, the figures for `O=C1NC(c2ccc(OCCCC(F)(F)F)cc2)(C(F)(F)F)CC(c2ccc(OC(F)F)cc2)=C1c1nn[nH]n1` (centres unmarked) [Example 93] were 30 nM and 37 nM.
The corresponding values for `Cc1ccc(C2=C(c3ccc(OC(F)(F)F)cc3)C(=O)NC(c3ccc(OCCCC(F)(F)F)cc3)(C(F)(F)F)C2)cc1` (centres unmarked) [Example 94] are 4 nM and 32 nM.
Taken in the same sequence, the figures for `COc1ccc(C2=C(c3nn[nH]n3)C(=O)NC(c3ccc(OCCCC(F)(F)F)cc3)(C(F)(F)F)C2)c(F)c1` (centres unmarked) [Example 95] were 43 nM and 95 nM.
With `O=C1NC(c2ccc(OCCCC(F)(F)F)cc2)(C(F)(F)F)CC(c2ccc(C(F)(F)F)cc2)=C1c1nn[nH]n1` (centres unmarked) [Example 98], the results for the IC50 on Human MGAT-2 [1] and on Human MGAT-2 [2] were 69 nM and 154 nM, respectively.
Taken in the same sequence, the figures for `O=C1NC(c2ccc(OCCCC(F)(F)F)cc2)(C(F)(F)F)CC(c2ccc(Cl)cc2)=C1c1nn[nH]n1` (centres unmarked) [Example 101] were 108 nM and 379 nM.
Taken in the same sequence, the figures for `Cc1ccc(C2=C(NC(=O)c3ccccc3C)C(=O)N[C@@](c3ccc(OCCCC(F)(F)F)cc3)(C(F)(F)F)C2)cc1` [Example 105, (S)-2-Methyl-N-(2-oxo-4-p-tolyl-6-(4-(4,4,4-trifluorobutoxyl)phenyl)-6-(trifluoromethyl)-1,2,5,6-tetrahydropyridin-3-yl)benzamide] were 24 nM and 672 nM.
The corresponding values for `Cc1ccc(C2=C(C(=O)Nc3ccc(-c4nnn[nH]4)nc3)C(=O)NC(c3ccc(OCCCC(F)(F)F)cc3)(C(F)(F)F)C2)cc1` (centres unmarked) [Example 111] are 7 nM and 9 nM.
As for `Cc1ccc(C2=C(c3nn[nH]n3)C(=O)NC(c3ccc(Br)cc3)(C(F)(F)F)C2)cc1` (centres unmarked) [Example 112], the IC50 amounted to 204 nM on Human MGAT-2 [1] and 1300 nM at Human MGAT-2 [2].
The corresponding values for `Cc1ccc(C2=C(c3nn[nH]n3)C(=O)NC(c3ccc(OCCCC(F)(F)C(F)(F)F)cc3)(C(F)(F)F)C2)cc1` (centres unmarked) [Example 118] are 4 nM and 32 nM.
Turning to `Cc1ccc(C2=C(C(=O)Nc3ccc(O)cc3)C(=O)NC(c3ccc(OCCCC(F)(F)F)cc3)(C(F)(F)F)C2)cc1` (centres unmarked) [Example 122], the concentration for half-maximal inhibition (IC50) was determined as 1 nM at Human MGAT-2 [1] and 14 nM on Human MGAT-2 [2].
The corresponding values for `Cc1ccc(C2=C(C(=O)Nc3nn[nH]n3)C(=O)NC(c3ccc(C4=CCCC4)cc3)(C(F)(F)F)C2)cc1` (centres unmarked) [Example 126] are 33 nM and 1870 nM.
The corresponding values for `Cc1ccc(C2=C(C(=O)Nc3nn[nH]n3)C(=O)NC(c3cccc(C4=CCCCC4)c3)(C(F)(F)F)C2)cc1` (centres unmarked) [Example 127] are 10 nM and 655 nM.
Taken in the same sequence, the figures for `Cc1ccc(C2=C(C(=O)Nc3ccno3)C(=O)NC(c3ccc(OCCC(F)(F)F)cc3)(C(F)(F)F)C2)cc1` (centres unmarked) [Example 130] were 1 nM and 20 nM.
As to `COc1ccc(NC(=O)C2=C(c3ccc(C)cc3)C(F)(F)C(c3ccc(OCCC(F)(F)F)cc3)(C(F)(F)F)NC2=O)cc1` (centres unmarked) [Example 133], the IC50 was found to be 127 nM on Human MGAT-2 [1] and 1520 nM at Human MGAT-2 [2].
The corresponding values for `COc1ccc(C2=C(n3cnnn3)C(=O)NC(c3ccc(OCCCC(F)(F)F)cc3)(C(F)(F)F)C2)c(F)c1` (centres unmarked) [Example 142] are 10 nM and 93 nM.
The corresponding values for `COc1ccc(C2=C(n3cnnn3)C(=O)NC(c3ccc(OCCCC(F)(F)F)cc3)(C(F)(F)F)C2)cc1` (centres unmarked) [Example 143] are 4 nM and 156 nM.
Taken in the same sequence, the figures for `N#CC1=C(c2ccc3ccccc3c2)CC(c2ccc(OCCCC(F)(F)F)cc2)(C(F)(F)F)NC1=O` (centres unmarked) [Example 146] were 25 nM and 397 nM.
Turning to `COc1ccc(NC(=O)C2=C(c3ccc(C)cc3C)CC(c3ccc(OCCCC(F)(F)F)cc3)(C(F)(F)F)NC2=O)cc1` (centres unmarked) [Example 148], the figures for the IC50 on Human MGAT-2 [1] and at Human MGAT-2 [2] were 9 nM and 102 nM, respectively.
The corresponding values for `O=C1NC(c2ccc(OCCCC(F)(F)F)cc2)(C(F)(F)F)CC(c2ccc(OC(F)F)cc2)=C1n1cnnn1` (centres unmarked) [Example 149] are 6 nM and 53 nM.
Taken in the same sequence, the figures for `Cc1ccc(C2=C(NC(=O)c3cc(C)no3)C(=O)NC(c3ccc(OCCCC(F)(F)F)cc3)(C(F)(F)F)C2(F)F)cc1` (centres unmarked) [Example 150] were 3 nM and 11 nM.
The corresponding values for `Cc1ccc(C2=C(NC(=O)c3nnc(C)o3)C(=O)NC(c3ccc(OCCCC(F)(F)F)cc3)(C(F)(F)F)C2)cc1` (centres unmarked) [Example 154] are 8 nM and 34 nM.
As to `Cc1ccc(C2=C(NC(=O)c3oncc3C)C(=O)NC(c3ccc(OCCCC(F)(F)F)cc3)(C(F)(F)F)C2)cc1` (centres unmarked) [Example 157], the concentration for half-maximal inhibition (IC50) at Human MGAT-2 [1] came out at 84 nM; on Human MGAT-2 [2] it was 168 nM.
On to `Cc1ccc(C2=C(NC(=O)c3ccc(Cl)nn3)C(=O)NC(c3ccc(OCCCC(F)(F)F)cc3)(C(F)(F)F)C2)cc1` (centres unmarked) [Example 158], for which the half-inhibitory concentration (IC50) on Human MGAT-2 [1] amounted to 75 nM; on Human MGAT-2 [2], 302 nM.
The corresponding values for `COc1ccc(C(=O)NC2=C(c3ccc(C)cc3)C(F)(F)C(c3ccc(OCCCC(F)(F)F)cc3)(C(F)(F)F)NC2=O)cc1` (centres unmarked) [Example 163] are 47 nM and 1180 nM.
`Cc1ccc(C2=C(C(=O)Nc3ccc(F)cc3)C(=O)NC(c3ccc(Oc4ccccc4)cc3)(C(F)(F)F)C2)cc1` (centres unmarked) [Example 165]: the values for the half-maximal inhibitory concentration (IC50) at Human MGAT-2 [1] and at Human MGAT-2 [2] were 8 nM and 60 nM, respectively.
Taken in the same sequence, the figures for `CCCCCCCNC(=O)C1(C)CC(c2ccc(C)cc2)=C(C(=O)Nc2ccc(OC)cc2)C(=O)N1` (centres unmarked) [Example 166] were 102 nM and 237 nM.
Taken in the same sequence, the figures for `O=C1NC(c2ccc(OCCCC(F)(F)F)cc2)(C(F)(F)F)CC(c2ccc(OC(F)F)cc2)=C1NC(=O)c1ccno1` (centres unmarked) [Example 167] were 2 nM and 8 nM.
